From patent US20140155371A1, “MULTICOMPONENT CRYSTALLINE SYSTEM OF EZETIMIBE AND PROLINE” (BASF SE, priority 2011, published 2014)
Blank lines part the entries; values can stand above or below the compound they belong to.

Columns and labels:
[1] = Dynamic (water) vapor sorption (DVS); assay type: physicochemical
Description: Dynamic (water) vapor sorption (DVS) is a method well known in the art to monitor the adsorption of water on a solid material. Therefore, DVS is a suitable method to determine the hygroscopic nature of a pharmaceutical active ingredient.
The crystalline form A described in WO 06/060808 (i.e. the free base) and the present composition (as obtained in example 3 further below) are subjected to a DVS experiment; results are shown in FIG. 4 and in the below Table 1. The crystalline composition is less prone to water uptake under humidity, and is easy to formulate compared to the crystalline anhydrous (“free base”) form of Ezetimibe (see Table 1).
Dynamic (water) vapour sorption (DVS) is performed with a Surface Measurement Systems Ltd. DVS-1 water sorption analyzer or with SPS11-100n moisture sorption instrument from Projekt Meβtechnik, Ulm, Germany.
Program: The relative humidity is kept at starting value of 0% for 5 hours, then continuously scanned from 0% to 60%, kept constant at 60% for 4 hours, and then scanned to 0% relative humidity, and kept constant for 4 hours. The scanning change rate of relative humidity is 5% per hour.

LDL levels = conditions: Ezetimibe added to statin therapy; compared with 6% by doubling the dose of statins; cited from earlier work

Water vapor sorption: water content after 4 h at 60% r.h. ([1]; after 4 h at 60% r.h.): 4.3% | Water vapor sorption: water content after 10 h at 50% r.h. ([1]; after 10 h at 50% r.h.): 4.0% | water uptake ([1]; at 60% relative humidity, FIG. 4): about 4.3% | relative humidity at which hydrate formation starts ([1]; increasing ambient humidity, FIG. 4 dashed line): about 50%
Compound: O=C1[C@H](CC[C@H](O)c2ccc(F)cc2)[C@@H](c2ccc(O)cc2)N1c1ccc(F)cc1 [1-(4-Fluorophenyl)-3(R)-[3-(4-fluorophenyl)-3(S)-hydroxypropyl]-4(S)-(4-hydroxyphenyl)azetidin-2-one]

Compound: O=C1[C@H](CC[C@H](O)c2ccc(F)cc2)[C@@H](c2ccc(O)cc2)N1c1ccc(F)cc1 [Ezetimibe, 1-(4-Fluorophenyl)-3(R)-[3-(4-fluorophenyl)-3(S)-hydroxypropyl]-4(S)-(4-hydroxyphenyl)azetidin-2-one]
reduction in LDL levels (LDL levels): 15%

relative humidity below which the hydrate begins to lose water ([1]; decreasing humidity, FIG. 4): about 25%
Compound: O=C1[C@H](CC[C@H](O)c2ccc(F)cc2)[C@@H](c2ccc(O)cc2)N1c1ccc(F)cc1 [hydrate form]
